Data: paper PMC3038857, “Using Nuclear Receptor Activity to Stratify Hepatocarcinogens” (PLoS ONE, 2011)
Where two headings read alike, the source gives them in different places.

Assays:
[1] = target: T1, ESRRA (estrogen-related receptor alpha) (Homo sapiens, UniProt P11474); experiment: ATG_ERRa_TRANS: Factorial reporter gene assay (HepG2); type: cell-based; details: scale not given, looks like -log10 of molar active concentration, 0 = no activity
T1 construct: expressed in transfected cells; host or cells: HepG2
T1 sequence (P11474 1-423): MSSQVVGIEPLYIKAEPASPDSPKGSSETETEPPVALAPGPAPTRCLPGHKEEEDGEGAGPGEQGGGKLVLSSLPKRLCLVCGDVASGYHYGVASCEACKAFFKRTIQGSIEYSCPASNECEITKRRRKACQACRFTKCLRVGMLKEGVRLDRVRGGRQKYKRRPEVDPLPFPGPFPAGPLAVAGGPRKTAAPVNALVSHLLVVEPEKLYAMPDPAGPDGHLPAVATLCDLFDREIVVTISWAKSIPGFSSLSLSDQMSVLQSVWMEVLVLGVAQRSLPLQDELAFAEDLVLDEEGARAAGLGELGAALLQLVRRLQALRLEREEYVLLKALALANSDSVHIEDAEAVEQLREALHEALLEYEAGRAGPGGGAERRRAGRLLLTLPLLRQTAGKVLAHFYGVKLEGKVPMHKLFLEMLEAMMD
Experimental: (§1) A multiple reporter transcription unit (MRTU) library consisting of 48 transcription factor binding sites was transfected into the HepG2 human liver hepatoma cell line. In addition to the cis-acting reporter genes (CIS), a modification of the approach was used to generate a trans-system (TRANS) with a mammalian one-hybrid assay consisting of an additional 25 MRTU library reporting the activity of nuclear receptor super-family members. […] These assays were performed by Attagene Inc. (Morrisville NC) under contract to EPA.
(§2) In addition to the cis-acting reporter genes (CIS), a modification of the approach was used to generate a trans-system (TRANS) with a mammalian one-hybrid assay consisting of an additional 25 MRTU library reporting the activity of nuclear receptor super-family members. […] Chemicals were then tested in the CIS and TRANS assays at seven concentrations starting at the MTC and followed by three-fold serial dilutions. These assays were performed by Attagene Inc. (Morrisville NC) under contract to EPA. Detailed description of the methods, data and analysis methods for this dataset will be presented in a separate publication.

[2] = target: T2, ESRRG (estrogen-related receptor gamma) (Homo sapiens, UniProt P62508); experiment: ATG_ERRg_TRANS: Factorial reporter gene assay (HepG2); type: cell-based; parameters: scale not given here
T2 construct: expressed in transfected cells; host or cells: HepG2
T2 sequence (P62508 1-458): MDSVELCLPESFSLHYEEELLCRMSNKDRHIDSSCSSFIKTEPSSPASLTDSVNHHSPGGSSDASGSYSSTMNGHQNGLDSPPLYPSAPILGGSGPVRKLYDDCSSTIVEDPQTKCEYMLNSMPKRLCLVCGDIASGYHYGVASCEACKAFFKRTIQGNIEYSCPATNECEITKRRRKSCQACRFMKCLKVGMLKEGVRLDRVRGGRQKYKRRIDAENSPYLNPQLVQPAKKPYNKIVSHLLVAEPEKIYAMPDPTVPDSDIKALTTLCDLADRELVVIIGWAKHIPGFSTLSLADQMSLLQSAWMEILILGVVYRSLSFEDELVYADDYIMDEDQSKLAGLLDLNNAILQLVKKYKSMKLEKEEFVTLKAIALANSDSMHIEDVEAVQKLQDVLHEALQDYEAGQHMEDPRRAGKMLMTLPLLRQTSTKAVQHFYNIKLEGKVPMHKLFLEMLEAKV
Experimental: as §1, §2

[3] = target: T3, PPARD (peroxisome proliferator-activated receptor delta) (Homo sapiens, UniProt Q03181); experiment: ATG_PPARd_TRANS: Factorial reporter gene assay (HepG2); type: cell-based; parameters: scale not given here; details: scale not given, looks like -log10 of molar active concentration, 0 = no activity
T3 construct: expressed in transfected cells; host or cells: HepG2
T3 sequence (Q03181 1-441): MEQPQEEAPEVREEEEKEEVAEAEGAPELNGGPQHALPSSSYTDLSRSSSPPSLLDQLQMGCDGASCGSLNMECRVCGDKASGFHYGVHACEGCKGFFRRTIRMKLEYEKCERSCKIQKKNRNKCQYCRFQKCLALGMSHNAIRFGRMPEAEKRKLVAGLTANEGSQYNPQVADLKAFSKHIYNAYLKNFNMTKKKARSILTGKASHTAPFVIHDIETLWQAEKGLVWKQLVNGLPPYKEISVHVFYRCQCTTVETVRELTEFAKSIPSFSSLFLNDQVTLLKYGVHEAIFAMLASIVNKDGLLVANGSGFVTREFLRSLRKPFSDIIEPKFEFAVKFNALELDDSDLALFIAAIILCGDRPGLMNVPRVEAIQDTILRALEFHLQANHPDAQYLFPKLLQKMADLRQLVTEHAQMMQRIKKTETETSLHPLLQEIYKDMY
Experimental: as §1, §2

[4] = target: T4, CAR (NR1I3) (Homo sapiens, UniProt Q14994); experiment: NVS_NR_hCAR: Human CAR CITCO (cell-free HTS); type: binding
T4 sequence (Q14994 1-352): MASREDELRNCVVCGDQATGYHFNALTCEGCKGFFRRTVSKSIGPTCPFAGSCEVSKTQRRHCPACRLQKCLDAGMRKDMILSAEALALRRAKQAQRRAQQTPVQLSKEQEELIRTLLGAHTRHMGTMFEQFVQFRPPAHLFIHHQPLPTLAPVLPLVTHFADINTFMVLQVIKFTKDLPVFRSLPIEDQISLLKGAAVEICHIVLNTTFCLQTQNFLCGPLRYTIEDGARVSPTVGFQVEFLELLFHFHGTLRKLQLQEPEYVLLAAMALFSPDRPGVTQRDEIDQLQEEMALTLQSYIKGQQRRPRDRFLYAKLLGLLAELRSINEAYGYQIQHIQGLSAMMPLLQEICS
Text: These are a collection of biochemical assays measuring binding constants and enzyme inhibition values. Chemicals were initially screened at a single concentration in duplicate wells at a concentration of 10 [drawing 63] M for cytochrome P-450 assays and 25 [drawing 64] M for all others. […] These assays were run by Caliper Life Sciences (Hanover, MD) under contract to EPA. Short assay descriptions are available at: http://www.caliperls.com/products/contract-research/in-vitro/.
Cell-free HTS Assays: A collection of biochemical assays measuring binding constants and enzyme inhibition values. […] These assays were run by Caliper Life Sciences (Hanover, MD) under contract to EPA. Short assay descriptions are available at http://www.caliperls.com/products/contract-research/in-vitro/. Values for all endpoints were imported into GeneData Screener (Basel, Switzerland) and normalised to solvent controls from the same plate as the tested compounds and expressed as percent of neutral control. Concentration-response curves were fit in GeneData Screener (Basel, Switzerland) Condeseo module using the Hill equation and AC50 values were determined. […] Detailed description of the methods, data and analysis methods for this dataset are described in a separate publication.

[5] = HepG2, scale not given, looks like -log10 of molar active concentration, 0 = no activity
[6] = scale not given, looks like -log10 of molar active concentration, 0 = no activity

| Compound | ATG_ERRa_TRANS [1] | ATG_ERRg_TRANS [2, 5] | ATG_PPARd_TRANS [3] | NVS_NR_hCAR [4, 6] | ATG_ERRg_TRANS ([2]; HepG2 reporter) | NVS_NR_hCAR [4] |
| --- | --- | --- | --- | --- | --- | --- |
| COC(=O)c1ccccc1CS(=O)(=O)NC(=O)Nc1nc(OC)cc(OC)n1 [r33] | 0 | 0 | 0 | 0 |  |  |
| CC(C)N1C(=O)c2ccccc2NS1(=O)=O [r37] | 0 | 0 | 0 |  |  |  |
| COc1ccc(-c2ccccc2)cc1NNC(=O)OC(C)C [r38] | 0 | 4.469 |  | 0 |  |  |
| Cc1c(COC(=O)C2C(/C=C(\Cl)C(F)(F)F)C2(C)C)cccc1-c1ccccc1 (centres unmarked) [r39] |  |  | 0 | 0 |  |  |
| CC(C)(c1ccc(O)cc1)c1ccc(O)cc1 [r40] | 0 | 0 | 0 | 6.955 |  |  |
| OB(O)O [r41] | 0 | 0 | 0 | 0 |  |  |
| O=C(Nc1ccccc1-c1ccc(Cl)cc1)c1cccnc1Cl [r42] | 0 | 0 | 0 | 0 |  |  |
| CCC(C)n1c(=O)[nH]c(C)c(Br)c1=O (centres unmarked) [r43] | 0 | 0 |  | 0 |  |  |
| N#Cc1cc(Br)c(O)c(Br)c1 [r44] | 0 | 0 | 0 | 0 |  |  |
| CC(C)N1C(=O)N(c2ccccc2)CS/C1=N\C(C)(C)C [r45] | 0 | 0 | 0 | 0 |  |  |
| CCCCOCN(C(=O)CCl)c1c(CC)cccc1CC [r46] | 0 | 0 | 0 | 0 |  |  |
| C=CCOC(=O)C(C)(C)OC(=O)c1cc(-n2c(=O)cc(C(F)(F)F)n(C)c2=O)ccc1Cl [r47] | 0 | 0 | 0 | 0 |  |  |
| CCC(C)Nc1c([N+](=O)[O-])cc(C(C)(C)C)cc1[N+](=O)[O-] (centres unmarked) [r48] | 0 | 0 | 0 |  |  |  |
| CCSC(=O)N(CC(C)C)CC(C)C [r49] | 0 | 0 | 0 | 0 |  |  |
| O=C1C2CC=CCC2C(=O)N1SC(Cl)(Cl)Cl (centres unmarked) [r51] | 0 | 0 | 0 | 0 |  |  |
| CNC(=O)Oc1cccc2ccccc12 [r52] |  |  | 0 | 0 |  |  |
| CC1=C(C(=O)Nc2ccccc2)SCCO1 [r53] | 0 | 0 | 0 |  |  |  |
| CCOC(=O)C(Cl)Cc1cc(-n2nc(C)n(C(F)F)c2=O)c(F)cc1Cl (centres unmarked) [r54] |  |  | 0 | 0 |  |  |
| Nc1cnn(-c2ccccc2)c(=O)c1Cl [r56] |  |  | 0 | 0 |  |  |
| COc1cc(Cl)c(OC)cc1Cl [r57] | 0 | 0 |  |  |  |  |
| N#Cc1c(Cl)c(Cl)c(Cl)c(C#N)c1Cl [r58] |  |  | 0 | 0 |  |  |
| CC(C)OC(=O)Nc1cccc(Cl)c1 [r59] | 0 | 0 | 0 |  |  |  |
| COc1nc(C)nc(NC(=O)NS(=O)(=O)c2ccccc2Cl)n1 [r62] | 0 | 0 |  | 0 |  |  |
| COc1nc(C)nc(NC(=O)NS(=O)(=O)c2ccccc2Cl)n1 [r63] | 0 | 0 |  | 0 |  |  |
| Cc1ccccc1CO[C@@H]1C[C@@]2(C(C)C)CC[C@]1(C)O2 [r64] |  |  | 0 | 0 |  |  |
| CCc1nn(C)c(C(=O)NCc2ccc(C(C)(C)C)cc2)c1Cl [r291] |  |  |  |  | 5.301 |  |
| CCc1cccc(C)c1N(C(=O)CCl)C(C)COC (centres unmarked) [row 208] |  |  |  |  |  | 4.462 |
